Measurements reported in patent publication US10173971B2, “Picolinamides with fungicidal activity” (DOW AGROSCIENCES LLC, priority 2014, dated 2019).
Like-named read-outs stand apart in the source and are kept apart here.

Columns and labels:
Phakopsora pachyrhizi = experiment: Fungicidal activity: Asian soybean rust (PHAKPA), soybean seedlings; conditions: 25 ppm, soybean plants (variety Williams 82); for Disease Control PHAKPA 1DP: 1 Day Protectant; for Disease Control PHAKPA 3DC: 3 Day Curative
Puccinia triticina = experiment: Fungicidal activity: wheat brown rust (PUCCRT), wheat seedlings, booth sprayer to run-off or track spray; format: in vivo; conditions: for pest or weed control at 121.5 g/ha: Low-Volume Cereal Activity at 121.5 g/H; for pest or weed control at 100 ppm: High-Volume Cereal Activity at 100 ppm
Zymoseptoria tritici = experiment: Fungicidal activity: leaf blotch of wheat (SEPTTR), wheat seedlings, booth sprayer to run-off or track spray; format: in vivo; conditions: for pest or weed control at 121.5 g/ha: Low-Volume Cereal Activity at 121.5 g/H; for pest or weed control at 100 ppm: High-Volume Cereal Activity at 100 ppm
[1] = 24 h, 1 Day Protectant, read-out: PUCCRT 1DP
[2] = 72 h, 3 Day Curative, read-out: PUCCRT 3DC
[3] = 24 h, 1 Day Protectant, read-out: SEPTTR 1DP
[4] = 72 h, 3 Day Curative, read-out: SEPTTR 3DC
[5] = 3DC (Day Curative), read-out: PUCCRT 3DC
[6] = 3DC (Day Curative), read-out: SEPTTR 3DC

Compound | Disease Control PHAKPA 1DP (Phakopsora pachyrhizi) | Disease Control PHAKPA 3DC (Phakopsora pachyrhizi) | pest or weed control at 121.5 g/ha (Puccinia triticina; [1]) [%] | pest or weed control at 121.5 g/ha (Puccinia triticina; [2]) [%] | pest or weed control at 121.5 g/ha (Zymoseptoria tritici; [3]) [%] | pest or weed control at 121.5 g/ha (Zymoseptoria tritici; [4]) [%] | pest or weed control at 100 ppm (Puccinia triticina; [1]) [%] | pest or weed control at 100 ppm (Puccinia triticina; [5]) [%] | pest or weed control at 100 ppm (Zymoseptoria tritici; [3]) [%] | pest or weed control at 100 ppm (Zymoseptoria tritici; [6]) [%]
COc1ccnc(C(=O)N[C@@H](C)C(=O)O[C@@H](C)[C@@H](COCc2ccccc2)Cc2ccccc2)c1OCOC(C)=O [compound 240] | A (80-100) | B (More than 0-Less than 80) | 80 to 100 | 80 to 100 | 0 to 80 | 80 to 100 | – | – | – | –
CCCO[C@H](CC)[C@@H](Cc1ccccc1)[C@H](C)OC(=O)[C@H](C)NC(=O)c1nccc(OC)c1OCOC(C)=O [compound 169] | A (80-100) | B (More than 0-Less than 80) | 80 to 100 | 80 to 100 | 80 to 100 | 80 to 100 | 80 to 100 | 80 to 100 | 80 to 100 | 80 to 100
COc1ccnc(C(=O)N[C@@H](C)C(=O)O[C@@H](C)[C@H](Cc2ccccc2)C(C)(C)OCc2ccccc2)c1OCOC(C)=O [compound 242] | B (More than 0-Less than 80) | – | 80 to 100 | 80 to 100 | 80 to 100 | 80 to 100 | – | – | – | –
CCOCC(=O)OCOc1c(OC)ccnc1C(=O)N[C@@H](C)C(=O)O[C@@H](C)[C@@H](COCc1ccccc1)Cc1ccc(F)cc1 [compound 233] | – | – | 80 to 100 | 0 to 80 | 0 to 80 | 0 to 80 | – | – | – | –
CC[C@H](CC1CC1)[C@@H](Cc1ccccc1)[C@H](C)OC(=O)[C@H](C)NC(=O)c1nccc(OC)c1O [compound 102] | – | – | – | – | – | – | 80 to 100 | 80 to 100 | 0 to 80 | 80 to 100
COc1ccnc(C(=O)N[C@@H](C)C(=O)O[C@@H](C)[C@H](Cc2ccccc2)C(C)(C)OC)c1OCOC(C)=O [compound 245] | – | – | 80 to 100 | 80 to 100 | – | 0 to 80 | – | – | – | –
CCOCC(=O)OCOc1c(OC)ccnc1C(=O)N[C@@H](C)C(=O)O[C@@H](C)[C@@H](COCc1ccccc1)Cc1ccccc1 [compound 234] | – | – | 80 to 100 | 80 to 100 | 0 to 80 | 80 to 100 | – | – | – | –
COc1ccnc(C(=O)N[C@@H](C)C(=O)O[C@@H](C)[C@H](Cc2ccc(Cl)cc2)c2ccccc2)c1OCOC(C)=O [compound 203] | – | – | 80 to 100 | 0 to 80 | 80 to 100 | 80 to 100 | – | – | – | –
COc1ccnc(C(=O)N[C@@H](C)C(=O)O[C@@H](C)[C@H](Cc2ccccc2)C(C)(C)OCc2ccccc2)c1O [compound 134] | – | – | – | – | – | – | 80 to 100 | 0 to 80 | 80 to 100 | 0 to 80
CCOCC(=O)OCOc1c(OC)ccnc1C(=O)N[C@@H](C)C(=O)O[C@@H](C)[C@H](CCC(C)C)c1ccccc1 [compound 215] | – | – | 80 to 100 | 80 to 100 | 80 to 100 | 80 to 100 | – | – | – | –
CC[C@H](Oc1ccccc1)[C@@H](Cc1ccccc1)[C@H](C)OC(=O)[C@H](C)NC(=O)c1nccc(OC)c1OCOC(C)=O [compound 191] | – | – | 80 to 100 | 80 to 100 | 80 to 100 | 80 to 100 | – | – | – | –
COc1ccnc(C(=O)N[C@@H](C)C(=O)O[C@@H](C)[C@H](Cc2ccccc2)C(C)(C)Oc2ccc(Cl)cc2Cl)c1OCOC(C)=O [compound 254] | – | – | 80 to 100 | 0 to 80 | 80 to 100 | 80 to 100 | – | – | – | –
COc1ccnc(C(=O)N[C@@H](C)C(=O)O[C@@H](C)[C@H](Cc2ccc(F)cc2)C(C)(C)OCc2ccc(F)cc2)c1O [compound 139] | – | – | – | – | – | – | 0 to 80 | – | 0 to 80 | 0 to 80
COc1ccnc(C(=O)N[C@@H](C)C(=O)O[C@@H](C)[C@H](Cc2ccc(F)cc2)c2ccccc2)c1OCOC(=O)C(C)C [compound 223] | – | – | 80 to 100 | 0 to 80 | 80 to 100 | 80 to 100 | – | – | – | –
CCCC[C@@H]([C@H](C)OC(=O)[C@H](C)NC(=O)c1nccc(OC)c1OCOC(C)=O)[C@@H](CC)Oc1ccccc1 [compound 189] | – | – | 80 to 100 | 80 to 100 | 80 to 100 | 0 to 80 | – | – | – | –
COc1ccnc(C(=O)N[C@@H](C)C(=O)O[C@@H](C)[C@H](Cc2ccc3ccccc3c2)c2ccccc2)c1OC(C)=O [compound 224] | – | – | 0 to 80 | – | 0 to 80 | 0 to 80 | – | – | – | –
COc1ccnc(C(=O)N[C@@H](C)C(=O)O[C@@H](C)[C@H](Cc2ccc(F)cc2)C(C)(C)OCc2ccc(F)cc2)c1OC(C)=O [compound 247] | – | – | 0 to 80 | – | 0 to 80 | 0 to 80 | – | – | – | –
COc1ccc(CC(Cc2ccc(OC)cc2)[C@H](C)OC(=O)[C@H](C)NC(=O)c2nccc(OC)c2OC(C)=O)cc1 [compound 272] | – | – | 0 to 80 | 0 to 80 | 80 to 100 | – | – | – | – | –
COc1ccc(CC(Cc2ccc(OC)cc2)[C@H](C)OC(=O)[C@H](C)NC(=O)c2nccc(OC)c2OCOC(C)=O)cc1 [compound 276] | – | – | 80 to 100 | – | 80 to 100 | 0 to 80 | – | – | – | –
CCCOC[C@@H](Cc1ccccc1)[C@H](C)OC(=O)[C@@H](C)NC(=O)c1nccc(OC)c1OCOC(C)=O [compound 166] | – | – | – | – | – | – | 80 to 100 | 80 to 100 | 0 to 80 | 0 to 80
CCCC[C@H](c1ccccc1)[C@H](C)OC(=O)[C@H](C)NC(=O)c1nccc(OC)c1OCOC(=O)C(C)C [compound 200] | – | – | 80 to 100 | 80 to 100 | 80 to 100 | 80 to 100 | – | – | – | –
CCCO[C@@H](CC)[C@@H](Cc1ccccc1)[C@H](C)OC(=O)C(C)(C)NC(=O)c1nccc(OC)c1OCOC(C)=O [compound 170] | – | – | – | – | – | – | 0 to 80 | – | 0 to 80 | 0 to 80
CCCO[C@H](CC)[C@@H](Cc1ccccc1)[C@H](C)OC(=O)[C@@H](C)NC(=O)c1nccc(OC)c1OCOC(C)=O [compound 165] | – | – | – | – | – | – | 0 to 80 | 80 to 100 | 80 to 100 | 0 to 80
COc1ccnc(C(=O)N[C@H](C(=O)OC(C)C(Cc2ccccc2)Cc2ccccc2)C(C)C)c1O (stereo partly drawn) [compound 148] | – | – | – | – | – | – | 0 to 80 | – | 0 to 80 | –
COc1ccnc(C(=O)N[C@@H](C)C(=O)O[C@@H](C)[C@H](Cc2ccc(F)cc2)C(C)(C)OC)c1OC(C)=O [compound 232] | – | – | 0 to 80 | – | 0 to 80 | 0 to 80 | – | – | – | –
